For the assay, the target named is Beta-2 adrenergic receptor (Homo sapiens, UniProt P07550). Particulars: Compound concentration 10.0 uM.
Sequence of Beta-2 adrenergic receptor (P07550 whole entry, looked up): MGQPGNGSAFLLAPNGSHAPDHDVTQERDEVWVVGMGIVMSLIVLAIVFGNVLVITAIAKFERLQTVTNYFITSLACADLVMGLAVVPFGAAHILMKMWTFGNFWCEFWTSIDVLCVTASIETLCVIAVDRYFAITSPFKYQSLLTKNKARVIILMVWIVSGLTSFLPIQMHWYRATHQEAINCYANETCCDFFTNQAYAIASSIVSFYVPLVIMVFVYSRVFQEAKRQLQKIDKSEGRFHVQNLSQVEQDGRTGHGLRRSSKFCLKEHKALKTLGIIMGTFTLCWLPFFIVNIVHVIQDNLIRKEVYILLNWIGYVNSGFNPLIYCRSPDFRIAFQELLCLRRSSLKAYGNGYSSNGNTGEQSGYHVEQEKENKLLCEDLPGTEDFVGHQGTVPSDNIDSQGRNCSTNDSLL

On to `CNC(=O)c1cc(C(=O)NC2CC2)cn(Cc2ccccc2)c1=O` [GSK620], for which the inhibition was 16.5%.

A word on the inhibition: it is how much of the control response was suppressed.

These data come from ChEMBL document CHEMBL4630909 (2021).
